≈ marks a conversion by molar mass, not a printed value. Read-outs that look alike come from different tables or passages of the source.
Tests used:
[1] = test system: A. baumanii BM4454 and efflux-defective BM4652; assay: MIC, A. baumannii laboratory strains; type: cell-based; conditions: Acinetobacter baumannii
Description: (§1) Minimum inhibitory concentration (MIC) values were determined according to the Clinical Laboratory Standards Institute guidelines. Frequency of resistance was determined by plating ~5 × 10^8 bacterial cells on agar-solidified media plates containing test compound at concentrations corresponding to four times the measured solid-media MIC of the strains. Colonies were counted after 24 h, restreaked onto media containing the same concentration of compound, and the MIC remeasured against the assayed compound. Genomic DNA from isolated clones was sequenced by paired-end sequencing on an Illumina MiSeq device. Complete experimental details available in SI Appendix. […]
Minimum inhibitory concentration (MIC) determination. Broth microdilution and agar dilution
MIC assays were conducted according to CLSI guidelines (M07-2012). Appropriate inoculation
suspension density was assessed using a Sensititre Nephelometer with a Sensititre 0.5
McFarland Standard. Serum MICs were conducted in 50% heat-inactivated pooled human

[2] = test system: clinical K. pneumoniae isolates (n=104); assay: MIC distribution and MIC90, clinical K. pneumoniae isolates; type: cell-based; conditions: Klebsiella pneumoniae; n=104, isolates from Spain, Poland, Denmark and Wales
Description: as §1
Minimum inhibitory concentration (MIC) determination. Broth microdilution and agar dilution MIC assays were conducted according to CLSI guidelines (M07-2012). Appropriate inoculation suspension density was assessed using a Sensititre Nephelometer with a Sensititre 0.5 […]
McFarland Standard. […]
To determine the […]
genotype of MDR strains from the ENABLE strain collection, de novo assembled contigs were analyzed using ResFinder (12–14) […]
MIC distribution versus E. coli (n=111)
Clinical Isolates from Spain, Poland, Denmark and Wales
Figure S4. MIC distribution and MIC90 versus clinical E. coli isolates
MIC distribution versus K. pneumoniae (n=104)
Figure S5. MIC distribution and MIC90 versus clinical K. pneumoniae isolates […]

[3] = test system: K. pneumoniae ATCC 13883; assay: Frequency of resistance and agar MIC, K. pneumoniae; type: cell-based; conditions: Klebsiella pneumoniae, ATCC13883, read-out: Agar MIC K. pneumoniae ATCC 13883
Description: as §1
Minimum inhibitory concentration (MIC) determination. […] Appropriate inoculation suspension density was assessed using a Sensititre Nephelometer with a Sensititre 0.5 […]
Frequency of Resistance. Frequency of resistance was assessed by spread plating between […] cfu of a freshly-grown culture of the strain of interest on plates containing a concentration of compound corresponding to 4 times the MIC of the strain (as determined by agar-dilution MIC). […] The frequency of resistance was determined by dividing the number of colonies obtained on the selective plates after 24 hours of growth by the calculated total population plated. […]

[4] = Safety testing in mice; type: in vivo; conditions: intravenous 50 mg/kg and subcutaneous 100 mg/kg
Description: PK and safety studies were done the Latvian Institute for Organic Synthesis (Riga, Latvia) and in vivo efficacy studies were done at Statens Serum Institut (Copenhagen, Denmark). Assays were done in accordance with the relevant permits at the respective sites (SI Appendix). For PK studies, plasma samples were taken from mice dosed subcutaneously and the samples were analyzed by UPLC/MS/MS. For in vivo efficacy studies, neutropenic mice were infected intraperitoneally with 10^6 bacteria and treated with subcutaneously with test compounds 1 h after infection. The mice were euthanized 4 h after treatment and serially diluted samples of blood and peritoneal fluid were plated onto blood agar plates. Complete experimental details available in SI Appendix.
Lantmännen) and water. […]
Safety testing in mice. […] Mice were extensively observed and toxicity signs were scored after 0-2, 5, […]
Plasma sample analysis by UPLC/MS/MS. Concentrations of EBL-3599 and EBL-3647 in mouse blood plasma were measured by liquid chromatography tandem mass spectrometry (LC/MS/MS) in positive electrospray ionization (ESI+) in multi reaction monitoring (MRM) mode. […]
A sample volume of 20 μL was transferred into a plastic tube and mixed with 300μL acetonitrile/methanol mixture (3:1, v/v) to precipitate proteins. […] Bioanalysis of samples from each mouse were measured in duplicate and the results averaged. […]

[5] = test system: PaLpxH; assay: PaLpxH enzyme inhibition compared to EcLpxH; type: biochemical, P. aeruginosa; conditions: PaLpxH vs EcLpxH
[6] = read-out: MIC A. baumanii BM4454
[7] = read-out: MIC A. baumanii BM4652

## Cc1cc(C#N)nc(N2CCN(S(=O)(=O)c3ccc(NC(=O)c4cc(CNCCCN)ccc4N(C)S(C)(=O)=O)cc3)CC2)n1.Cl.Cl [EBL-3599]
[1]; [6]
  MIC: > 64 µg/mL
[1]; [7]
  MIC: 32 µg/mL
[2]
  MIC90: 8 µg/mL
[3]
  MIC: 0.5 µg/mL
[4]
  Tolerability / adverse reactions in mice: well tolerated
[5]
  Factor of decrease in inhibitory effect on PaLpxH compared to EcLpxH: > 10

## Cc1cc(C#N)nc(N2CCN(S(=O)(=O)c3ccc(NC(=O)c4cc(CN5CC(CN)C5)ccc4N(C)S(C)(=O)=O)cc3)CC2)n1 [EBL-3647]
[1]; [6]
  MIC: > 64 µg/mL
[1]; [7]
  MIC: 64 µg/mL (≈ 95.8 µM)
[2]
  MIC90: 8 µg/mL (≈ 12 µM)
[3]
  MIC: 0.5 µg/mL (≈ 0.749 µM)
[4]
  Tolerability / adverse reactions in mice: well tolerated
[5]
  Factor of decrease in inhibitory effect on PaLpxH compared to EcLpxH: > 10

— paper PMC11009625, “Antibiotic class with potent in vivo activity targeting lipopolysaccharide synthesis in Gram-negative bacteria” (Proceedings of the National Academy of Sciences of the …, 2024)
